Legend:
[1] = molecular target: T1, Oxysterols receptor LXR-beta (Homo sapiens, UniProt P55055); test: Effective concentration against liver X receptor-beta in HEK293 cell transactivation assay; type: cell-based
T1 sequence (P55055 whole entry): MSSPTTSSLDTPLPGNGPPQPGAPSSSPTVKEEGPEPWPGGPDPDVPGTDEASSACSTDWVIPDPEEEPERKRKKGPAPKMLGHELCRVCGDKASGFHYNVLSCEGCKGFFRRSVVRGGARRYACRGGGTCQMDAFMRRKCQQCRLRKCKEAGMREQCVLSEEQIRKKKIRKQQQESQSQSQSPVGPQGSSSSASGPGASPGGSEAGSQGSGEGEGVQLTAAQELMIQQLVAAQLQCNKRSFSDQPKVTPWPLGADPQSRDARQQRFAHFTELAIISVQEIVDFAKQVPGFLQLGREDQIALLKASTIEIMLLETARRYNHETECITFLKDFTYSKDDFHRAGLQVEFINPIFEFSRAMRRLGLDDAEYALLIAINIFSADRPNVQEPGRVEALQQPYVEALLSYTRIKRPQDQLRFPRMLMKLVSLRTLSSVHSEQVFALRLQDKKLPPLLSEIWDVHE

[2] = molecular target: T2, Oxysterols receptor LXR-alpha (Homo sapiens, UniProt Q13133); test: Effective concentration for cofactor association with recombinant liver X receptor-alpha
T2 sequence (Q13133 whole entry): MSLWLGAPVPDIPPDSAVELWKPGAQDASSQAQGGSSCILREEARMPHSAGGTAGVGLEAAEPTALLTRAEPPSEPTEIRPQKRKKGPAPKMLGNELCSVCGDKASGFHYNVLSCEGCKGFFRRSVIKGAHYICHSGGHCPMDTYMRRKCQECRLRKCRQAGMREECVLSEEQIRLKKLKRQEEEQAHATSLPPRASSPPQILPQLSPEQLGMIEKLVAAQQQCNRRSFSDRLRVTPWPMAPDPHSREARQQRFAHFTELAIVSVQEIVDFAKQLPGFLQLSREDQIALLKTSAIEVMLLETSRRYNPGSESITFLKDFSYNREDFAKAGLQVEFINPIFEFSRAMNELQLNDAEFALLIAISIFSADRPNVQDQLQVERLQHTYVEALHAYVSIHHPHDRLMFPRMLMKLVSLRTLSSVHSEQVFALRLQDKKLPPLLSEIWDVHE

[3] = molecular target: T1, Oxysterols receptor LXR-beta; test: Displacement of [3H2]-F3-methyl AA (1) from liver X receptor-beta in SPA assay
[4] = molecular target: T2, Oxysterols receptor LXR-alpha; test: Effective concentration against liver X receptor-alpha in HEK293 cell transactivation assay; type: cell-based
[5] = molecular target: T2, Oxysterols receptor LXR-alpha; test: Displacement of [3H2]-F3-methyl AA (1) from liver X receptor-alpha in SPA assay
[6] = molecular target: T1, Oxysterols receptor LXR-beta; test: Effective concentration for cofactor association with recombinant liver X receptor-beta
[7] = molecular target: T1, Oxysterols receptor LXR-beta; test: Effective concentration for cofactor association with recombinant liver X receptor-beta; Not active
[8] = molecular target: T1, Oxysterols receptor LXR-beta; test: Displacement of [3H2]-F3-methyl AA (1) from liver X receptor-beta in SPA assay; Not active
[9] = molecular target: T2, Oxysterols receptor LXR-alpha; test: Displacement of [3H2]-F3-methyl AA (1) from liver X receptor-alpha in SPA assay; Not active
[10] = molecular target: T2, Oxysterols receptor LXR-alpha; test: Effective concentration for cofactor association with recombinant liver X receptor-alpha; Not active
[11] = molecular target: T3, Oxysterols receptor LXR-beta (Homo sapiens) (UniProt P55055); test: Percent inhibition of [3H2]-F3-methyl AA (1) binding to liver X receptor-beta at 100 uM
T3 sequence (whole entry): T1 sequence (P55055 whole entry)

[12] = molecular target: T4, Oxysterols receptor LXR-alpha (Homo sapiens) (UniProt Q13133); test: Percent inhibition of [3H2]-F3-methyl AA (1) binding to liver X receptor-alpha at 100 uM
T4 sequence (whole entry): T2 sequence (Q13133 whole entry)

Row | SMILES | EC50 [2] [nM] | IC50 [3] [nM] | EC50 [4] [nM] | IC50 [5] [nM] | EC50 [6] [nM] | EC50 [7] | IC50 [8] | IC50 [9] | EC50 [10] | other results
1 | CC(=O)Oc1ccc2c(c1)[C@@]1(C)CCCC(C)(C(=O)OC(=O)[C@@]3(C)CCC[C@]4(C)c5cc(OC(C)=O)ccc5CC[C@@H]34)[C@@H]1CC2 (stereo partly specified) | 2 | 2 | 10 | 2 | 2 |  |  |  |  | EC50 [1]: 10 nM
2 | CCCc1c(OCCCSc2ccc(CC(=O)O)cc2Cl)ccc2c(C(F)(F)F)noc12 | 35.4 |  | 1790 | 35.4 |  |  |  |  |  | EC50 ([4]; hek293): 1790 nM
3 | C[C@]1(C(=O)O)CCC[C@]2(C)c3cc(O)ccc3CC[C@@H]12 [PODOCARIC ACID] | > 50000 | > 50000 |  | > 50000 | > 50000 |  |  |  |  | 
4 | CC1OC(Oc2cc3c(cc2-c2cc4c(cc2O)[C@@]2(C)CCC[C@](C)(C(=O)O)[C@@H]2CC4)CC[C@H]2[C@@](C)(C(=O)O)CCC[C@]32C)C(O)C(O)C1O (stereo partly specified) |  |  |  |  |  | Not Active | Not Active | Not Active | Not Active | 
5 | C[C@]1(C(=O)O)CCC[C@]2(C)c3cc(OP(=O)(O)Oc4ccc5c(c4)[C@@]4(C)CCC[C@](C)(C(=O)O)[C@@H]4CC5)ccc3CC[C@@H]12 |  |  |  |  |  | Not Active | Not Active | Not Active | Not Active | 
6 | CC(C)CC[C@@H](O)[C@@H](C)[C@H]1CC[C@H]2[C@@H]3CC=C4C[C@@H](O)CC[C@]4(C)[C@H]3CC[C@]12C [22(R)-HYDROXYCHOLESTEROL] | 15000 |  |  |  | 15000 |  |  |  |  | inhibition [11]: 60%; inhibition [12]: 70%

— ChEMBL document CHEMBL1145279, “Discovery and development of dimeric podocarpic acid leads as potent agonists of liver X receptor with HDL cholesterol raising activity in mice and hamsters” (Bioorg Med Chem Lett, 2005)
